This note sets out measurements from patent US5475015A, “Benzimidazole derivatives, their preparation and pharmaceutical use” (NeuroSearch A/S, priority 1993, dated 1995).

Experiment [1] deals with delayed rectifier K+ channel. Briefly: Single channel experiments, inside-out patches of cerebellar granule cell membrane: delayed rectifier. Format: cell-based. To be noted: 3 μM. The protocol: (§1) All experiments were performed with patch-clamp technique (Hamill et al., Pflugers Arch. 391, 85-100 (1981)). The ion composition of the internal solution was (in mM) 140 KCl, 1 CaCl2, 1 MgCl2, 2 EGTA, 10 HEPES and the external solution contained 140 NaCl, 4 KCl, 2 CaCl2, 1 MgCl2 and 10 HEPES.
(§2) In inside-out patches of cerebellar granule cell membrane single BK channels were activated by for example 5-trifluoromethyl1-(5-trifluoromethyl-2-hydroxyphenyl)-1,3-dihydro-2H-benzimidazole-2-one (3 μM). […] No effect was found on the delayed rectifier K+ channel or on the Cl- channels also present in the patches.

Another experiment has as its system Cl- channels. Briefly: Single channel experiments, inside-out patches of cerebellar granule cell membrane: Cl- channels. Particulars: 3 μM. In kind it is cell-based. How it is done:
as §1, §2

Experiment [2] has as its system BK channel. Briefly: Single channel experiments in cultured bovine aortic smooth muscle cells. In kind it is cell-based. Particulars: 3 μM. The protocol:
as §1

Experiment [3] concerns calf aortic smooth muscle cells. Briefly: Whole-cell current clamp recording of membrane potential. In kind it is cell-based. Particulars: 10 μM to the bath. How it is done: as §1
The membrane potential of calf aortic smooth muscle cells was determined in whole-cell recordings using current clamp mode (HEKA EPC-9 patch-clamp amplifier). Due to the high-resistance seal and the large size of these cells the recorded membrane potential stayed stable for periods of 30-60 min, although at somewhat depolarized values (-58--22 mV). Administration of for example 1-(5-trifluoromethyl-2-hydroxyphenyl)-5-trifluoromethyl-1,3-dihydro-2H-benzimidazol-2-one (10 μM) to the bath hyperpolarized the cells after a delay of 1-3 min. The average hyperpolarization was -20 mV (SD=-9 mV, n=7), and the effect was largest in the cells being most depolarized prior to administration of the compound.
The equilibrium potential for K+, Cl-, and Na+ in these experiments were -90 mV, 0 mV, and +90 mV, respectively (cf. ion composition above). Thus, since potassium is the only ion having a reversal potential more negative than the resting membrane potential the observed hyperpolarization induced by the test compound must be explained through an increased potassium conductance.

The subject of another experiment is Guinea pig trachea. Briefly: Trachea experiment (vagus nerve stimulated pressure increase). An excerpt:
The compound, 5-trifluoromethyl-1-(5-trifluoromethyl-2-hydroxyphenyl)-1,3-dihydro-2H-benzimidazole-2-one, has been studied in a trachea model in which relaxation predicts anti-asthmatic potential.
Method: Guinea pig trachea is isolated with intact vagus nerve. Tubes are inserted into both ends and ligated tightly so the pressure in the fluid-filled lumen can be monitored. Electrical stimulation of the vagus nerve leads to a contraction and a pressure increase. The difference in electrically-stimulated pressure increase in the absence and presence of compound is measured.

Experiment [4] deals with BK channel. Briefly: Single channel experiments, inside-out patches of cerebellar granule cell membrane. Format: cell-based. Particulars: 3 μM. How it is done:
as §1

The test system of experiment [5] is acetylcholine-contracted guinea-pig ileum. The experiment in a line: Guinea-pig ileum experiment (relaxation of acetylcholine-contracted ileum). The protocol:
The compound, 5-trifluoromethyl-1-(5-trifluoromethyl-2-hydroxyphenyl)-1,3-dihydro-2H-benzimidazole-2-one, has been studied for its ability to relax acetylcholine-contracted guinea-pig ileum. The smooth muscle cells of the ileum express many BK channels and the model predicts relaxing effects on the gastrointestinal or urogenital tracts. […] The effect of 30 μM compound is reversed by the BK channel blocker TEA+ (1-3 mM), confirming that the relaxing effect is mediated via BK channels.
Method: Ileum from guinea-pigs are isolated and mounted in an isometric contraction chamber. It is bathed in a physiological Krebs solution at 98° F. The ileum is precontracted with increasing concentrations of acetylcholine (0.015-5.0 μM). The contractions are reversed by including the compound in the bathing solution.

In experiment [6] the test system is cocaine induced hypermotility. Briefly: Cocaine motility test. Format: in vivo, NMRI mice. How it is done: The compound, 5-trifluoromethyl-1-(5-trifluoromethyl-2-hydroxyphenyl)-1,3-dihydro-2H-benzimidazole-2-one, has been studied in the cocaine motility test. Cocaine induces hypermotility due to an inhibition of dopamine reuptake. The test is recognized as a test predicting anti-psychotic activity.
Method: Two female NMRI mice (20-25 g) are placed in each test box (normal transparent plexiglas cage, w, l, h=21×39×19 cm ) in the test room for at least 16 hours with food and water ad libitum before the test in order for the animals to habituate to the situation. The test compound is administered i.p. 15 min before saline or 25 mg/kg cocaine i.p. to 32 mice (16 boxes) per dose. Food and water are withdrawn, and the motility is measured as the number of interrupted infrared photo-beams (8 per box placed 5 cm apart and 3 cm over the bottom of the cage) in the next 120 min.

In the case of `O=c1[nH]c2cc(C(F)(F)F)ccc2n1-c1cc(C(F)(F)F)ccc1O` [Example 6, 1-(2-Hydroxy-5-trifluoromethylphenyl)-5-trifluoromethyl-1,3-dihydro-2H-benzimidazol-2-one], the “effect on the delayed rectifier K+ channel” value in experiment [1] is on record as “No effect”. In addition, in the experiment on Cl- channels, the “effect on the Cl- channels” value is “No effect”. Further, in the experiment on BK channel [2], the “activation of the BK channel” value is on record as “significantly activated”. Moreover, in experiment [3], the “delay before hyperpolarization of the cells” value lay within 1 to 3 min. The molecule also showed an average hyperpolarization in experiment [3] (current clamp, SD=-9 mV, n=7) of -20 mV. The “potentiation of the relaxing effect of lemakalim” value in the experiment with Guinea pig trachea (10 μM compound) is 10 x. Further, the relaxation of trachea entry in the experiment on Guinea pig trachea (10-100 μM) is “relaxes trachea in a dose-dependent way”. Moreover, in the experiment with BK channel [4], the “increase of the open probability of the BK channel” value is on record as “several hundred percent”. Also, in experiment [5] (30 μM compound, TEA+ 1-3 mM), the “effect of BK channel blocker TEA+ on the relaxing effect” value is on record as “reversed”. For the same molecule, the “relaxation of acetylcholine-contracted ileum” value in experiment [5] (3-30 μM) is “relaxes the ileum in a dose-dependent way”. Besides, in experiment [6] (30 mg/kg, without cocaine), the “effect of compound by itself on motility” value is “weak hyperactivity”. Besides, the “antagonism of cocaine induced hypermotility” value in experiment [6] (1-10 mg/kg i.p. 15 min before 25 mg/kg cocaine i.p., mice, motility over 120 min) is recorded as “antagonizes cocaine induced hypermotility”.
